Test results published in the NIST ThermoML archive (doi:10.1016/j.jct.2019.01.007).
Several values for one entry are separate records, joined by “and”; a condition that tells them apart may be missing. Equal entries are not always repeated. Numbers after ± are expanded uncertainties.

Conditions: Liquid

CCCCCCCCCCCCCCCCCC(=O)OC [methyl octadecanoate]
Conditions	vapor or sublimation pressure
323.15 K	1.964e-05 ± 1.7e-06 kPa
325.63 K	2.609e-05 ± 1.7e-06 kPa
329.6 K	4.071e-05 ± 1.7e-06 kPa
330.56 K	4.58e-05 ± 1.7e-06 kPa
332.04 K	5.362e-05 ± 1.8e-06 kPa
333.07 K	6.007e-05 ± 1.8e-06 kPa
334.55 K	6.999e-05 ± 1.8e-06 kPa
335.51 K	7.764e-05 ± 1.8e-06 kPa
336.99 K	9.04e-05 ± 1.9e-06 kPa
338.02 K	0.0001008 ± 1.9e-06 kPa
339.5 K	0.0001184 ± 2e-06 kPa
340.47 K	0.0001287 ± 2e-06 kPa
340.98 K	0.0001351 ± 2.1e-06 kPa
341.1 K	0.0001377 ± 2.1e-06 kPa
341.96 K	0.0001499 ± 2.1e-06 kPa
342.97 K	0.0001648 ± 2.3e-06 kPa
343.46 K	0.0001744 ± 2.4e-06 kPa
343.47 K	0.0001739 ± 2.4e-06 kPa
343.6 K	0.0001774 ± 2.4e-06 kPa
344.44 K	0.0001914 ± 2.6e-06 kPa
345.44 K	0.0002122 ± 2.8e-06 kPa
345.93 K	0.0002228 ± 3e-06 kPa and 0.0002233 ± 3e-06 kPa
348.42 K	0.0002848 ± 3.7e-06 kPa
348.57 K	0.0002879 ± 3.8e-06 kPa
350.9 K	0.0003613 ± 4.7e-06 kPa
355.89 K	0.0005743 ± 7.3e-06 kPa
358.52 K	0.0007236 ± 9.2e-06 kPa
360.89 K	0.0008965 ± 1.1e-05 kPa
363.49 K	0.001127 ± 1.4e-05 kPa
363.98 K	0.00118 ± 1.5e-05 kPa
365.92 K	0.001386 ± 1.7e-05 kPa
366.47 K	0.00146 ± 1.8e-05 kPa
368.46 K	0.001721 ± 2.1e-05 kPa
368.97 K	0.001804 ± 2.3e-05 kPa
370.93 K	0.002113 ± 2.6e-05 kPa
371.46 K	0.002216 ± 2.8e-05 kPa
373.44 K	0.002588 ± 3.2e-05 kPa
373.95 K	0.00271 ± 3.4e-05 kPa
373.96 K	0.002713 ± 3.4e-05 kPa
375.45 K	0.003046 ± 3.8e-05 kPa
375.93 K	0.003163 ± 3.9e-05 kPa
376.44 K	0.003286 ± 4.1e-05 kPa
377.44 K	0.003573 ± 4.4e-05 kPa
380.44 K	0.004514 ± 5.6e-05 kPa and 0.0045 ± 5.6e-05 kPa
381.43 K	0.004848 ± 6e-05 kPa
381.44 K	0.004888 ± 6.1e-05 kPa and 0.0049 ± 6.1e-05 kPa
382.43 K	0.005241 ± 6.5e-05 kPa
383.93 K	0.005905 ± 7.3e-05 kPa
383.94 K	0.0059 ± 7.3e-05 kPa
385.43 K	0.006597 ± 8.2e-05 kPa and 0.006574 ± 8.1e-05 kPa
386.43 K	0.007091 ± 8.8e-05 kPa and 0.007085 ± 8.8e-05 kPa
388.93 K	0.00852 ± 0.00011 kPa
391.41 K	0.01021 ± 0.00013 kPa
393.92 K	0.0122 ± 0.0002 kPa
396.39 K	0.01443 ± 0.00021 kPa
398.9 K	0.01726 ± 0.00023 kPa
401.38 K	0.0202 ± 0.00027 kPa
403.89 K	0.02406 ± 0.00032 kPa
406.38 K	0.0282 ± 0.00037 kPa
408.88 K	0.03336 ± 0.00043 kPa

Transpiration method
Conditions	vapor or sublimation pressure [kPa]
369.05 K	0.00176 ± 0.00036
371.15 K	0.00202 ± 0.00041
375.1 K	0.0027 ± 0.00055
377.05 K	0.00323 ± 0.00066
380.05 K	0.00389 ± 0.00079
383.15 K	0.00494 ± 0.001
387.15 K	0.00636 ± 0.0013
390.35 K	0.00731 ± 0.0015
393.15 K	0.00901 ± 0.0018
397.5 K	0.013 ± 0.0026
399.45 K	0.0149 ± 0.003
400.35 K	0.0159 ± 0.0032
401.35 K	0.0166 ± 0.0034
405.2 K	0.0225 ± 0.0046
405.6 K	0.0231 ± 0.0047
408.4 K	0.0279 ± 0.0057
410.25 K	0.0322 ± 0.0066
411.15 K	0.0339 ± 0.0069
412.3 K	0.036 ± 0.0073
415.2 K	0.0433 ± 0.0088
416.35 K	0.0424 ± 0.0086
419.25 K	0.052 ± 0.011
420.15 K	0.0563 ± 0.011
423.1 K	0.0664 ± 0.013
425.15 K	0.0804 ± 0.016

CCCCCCCCCCCCCC(=O)OC [methyl tetradecanoate]
Conditions	vapor or sublimation pressure [kPa]
302.71 K	0.0001132 ± 2e-06
305.3 K	0.0001501 ± 2.2e-06
306.14 K	0.0001656 ± 2.3e-06
307.76 K	0.0001949 ± 2.6e-06
308.58 K	0.0002142 ± 2.9e-06
310.23 K	0.0002542 ± 3.4e-06
311.21 K	0.0002813 ± 3.7e-06
312.71 K	0.0003264 ± 4.3e-06
313.7 K	0.0003625 ± 4.7e-06
315.17 K	0.0004199 ± 5.4e-06
316.16 K	0.0004655 ± 6e-06
317.65 K	0.0005357 ± 6.8e-06
318.63 K	0.0005914 ± 7.6e-06
320.12 K	0.0006862 ± 8.7e-06
321.26 K	0.0007623 ± 9.7e-06
322.58 K	0.0008688 ± 1.1e-05
323.72 K	0.0009621 ± 1.2e-05
325.2 K	0.001105 ± 1.4e-05
326.19 K	0.001216 ± 1.5e-05
327.67 K	0.001391 ± 1.7e-05
328.66 K	0.001519 ± 1.9e-05
330.13 K	0.001743 ± 2.2e-05
331.13 K	0.001907 ± 2.4e-05
332.6 K	0.002171 ± 2.7e-05
333.6 K	0.002378 ± 3e-05
335.34 K	0.002751 ± 3.4e-05
336.07 K	0.002936 ± 3.7e-05
337.83 K	0.00341 ± 4.2e-05
338.55 K	0.003626 ± 4.5e-05
340.31 K	0.004207 ± 5.2e-05
341.01 K	0.00447 ± 5.6e-05
342.8 K	0.005171 ± 6.4e-05
343.48 K	0.005466 ± 6.8e-05
345.28 K	0.006333 ± 7.8e-05
345.96 K	0.006695 ± 8.3e-05
347.76 K	0.007722 ± 9.5e-05
348.43 K	0.008134 ± 0.0001
350.25 K	0.009383 ± 0.00012
350.91 K	0.009867 ± 0.00012
352.73 K	0.01136 ± 0.00014
355.48 K	0.01397 ± 0.00021
357.96 K	0.0168 ± 0.00023
360.44 K	0.02019 ± 0.00027
362.92 K	0.02417 ± 0.00032
365.4 K	0.02884 ± 0.00038
367.85 K	0.0341 ± 0.00044
370.34 K	0.0405 ± 0.00052
372.83 K	0.04791 ± 0.00061
375.44 K	0.05668 ± 0.00072
377.92 K	0.06667 ± 0.00084
380.41 K	0.0782 ± 0.00098
382.89 K	0.09144 ± 0.0011
385.37 K	0.1068 ± 0.0013
387.86 K	0.1243 ± 0.0016
390.36 K	0.1443 ± 0.0018
393.01 K	0.1685 ± 0.0021
395.5 K	0.1947 ± 0.0024
397.98 K	0.2245 ± 0.0028
400.45 K	0.2582 ± 0.0032
402.96 K	0.297 ± 0.0037
405.45 K	0.3402 ± 0.0042
407.93 K	0.3881 ± 0.0048
410.41 K	0.4428 ± 0.0055
412.89 K	0.5045 ± 0.0062
415.45 K	0.5764 ± 0.0071
417.93 K	0.6527 ± 0.008
420.4 K	0.7365 ± 0.0091
422.88 K	0.8323 ± 0.01

Transpiration method
Conditions	vapor or sublimation pressure [kPa]
303.05 K	0.000126 ± 2.6e-05
304.65 K	0.000152 ± 3.1e-05
306.05 K	0.000172 ± 3.5e-05
309.15 K	0.000236 ± 4.8e-05
311.15 K	0.00032 ± 6.5e-05
313.15 K	0.00039 ± 7.9e-05
316.25 K	0.000485 ± 9.9e-05
319.25 K	0.000631 ± 0.00013
322.05 K	0.000891 ± 0.00018
325.05 K	0.00116 ± 0.00024
328.25 K	0.00151 ± 0.00031
331.05 K	0.0019 ± 0.00039
333.05 K	0.00252 ± 0.00051
333.15 K	0.00233 ± 0.00048
334.95 K	0.00275 ± 0.00056
338.05 K	0.00359 ± 0.00073
340.05 K	0.00416 ± 0.00085
343.05 K	0.00536 ± 0.0011
344.95 K	0.00629 ± 0.0013
348.05 K	0.00758 ± 0.0015
350.15 K	0.00963 ± 0.002
353.05 K	0.0111 ± 0.0023
355.15 K	0.0133 ± 0.0027
358.05 K	0.0168 ± 0.0034
360.05 K	0.02 ± 0.0041
363.05 K	0.0242 ± 0.0049

CCCCCCCCCCCCC(=O)OC [methyl tridecanoate]
Transpiration method
Conditions	vapor or sublimation pressure [kPa]
298.15 K	0.000239 ± 4.9e-05
300.15 K	0.000302 ± 6.2e-05
303.25 K	0.00041 ± 8.4e-05
305.15 K	0.000485 ± 9.9e-05
308.15 K	0.000697 ± 0.00014
310.15 K	0.000799 ± 0.00016
313.35 K	0.00112 ± 0.00023
315.05 K	0.0013 ± 0.00027
318.25 K	0.00174 ± 0.00035
320.15 K	0.00203 ± 0.00041
323.25 K	0.00258 ± 0.00053
325.05 K	0.00314 ± 0.00064
328.15 K	0.00415 ± 0.00085
330.15 K	0.00492 ± 0.001
333.15 K	0.00626 ± 0.0013
335.15 K	0.00739 ± 0.0015
338.15 K	0.00934 ± 0.0019
340.15 K	0.0111 ± 0.0023
343.05 K	0.0131 ± 0.0027
345.15 K	0.0163 ± 0.0033
348.15 K	0.0197 ± 0.004
350.15 K	0.023 ± 0.0047
353.15 K	0.0286 ± 0.0058
355.15 K	0.0338 ± 0.0069

CCCCCCCCCCC(=O)OC [methyl undecanoate]
Conditions	vapor or sublimation pressure [kPa]
305.25 K	0.003577 ± 4.5e-05
307.81 K	0.004504 ± 5.6e-05
310.15 K	0.005571 ± 6.9e-05
312.67 K	0.006957 ± 8.6e-05
315.06 K	0.008553 ± 0.00011
317.52 K	0.01055 ± 0.00013
319.94 K	0.01283 ± 0.0002
322.42 K	0.01574 ± 0.00022
324.82 K	0.019 ± 0.00026
327.29 K	0.02304 ± 0.00031
329.69 K	0.02778 ± 0.00036
332.16 K	0.03345 ± 0.00043
334.54 K	0.03987 ± 0.00051
337.03 K	0.04783 ± 0.00061
339.43 K	0.05689 ± 0.00072
341.91 K	0.06735 ± 0.00085
